Molecular target: T1, Adrenergic receptor alpha-2 (Rattus norvegicus, UniProt P22086+P19328+P22909)
T1 sequence (P22086 whole entry): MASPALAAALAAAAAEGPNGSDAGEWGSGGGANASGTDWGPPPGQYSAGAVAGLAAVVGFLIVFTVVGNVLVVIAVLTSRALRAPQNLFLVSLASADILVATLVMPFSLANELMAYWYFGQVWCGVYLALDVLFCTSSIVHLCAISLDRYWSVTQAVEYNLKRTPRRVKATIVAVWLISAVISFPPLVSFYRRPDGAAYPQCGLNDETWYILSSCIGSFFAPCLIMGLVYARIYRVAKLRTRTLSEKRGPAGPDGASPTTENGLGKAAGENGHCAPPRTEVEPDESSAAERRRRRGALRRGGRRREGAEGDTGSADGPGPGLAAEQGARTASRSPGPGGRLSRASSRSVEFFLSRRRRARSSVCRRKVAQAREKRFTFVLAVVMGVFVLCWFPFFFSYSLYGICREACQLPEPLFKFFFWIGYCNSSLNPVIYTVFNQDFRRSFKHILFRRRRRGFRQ
T1 sequence (P19328 whole entry): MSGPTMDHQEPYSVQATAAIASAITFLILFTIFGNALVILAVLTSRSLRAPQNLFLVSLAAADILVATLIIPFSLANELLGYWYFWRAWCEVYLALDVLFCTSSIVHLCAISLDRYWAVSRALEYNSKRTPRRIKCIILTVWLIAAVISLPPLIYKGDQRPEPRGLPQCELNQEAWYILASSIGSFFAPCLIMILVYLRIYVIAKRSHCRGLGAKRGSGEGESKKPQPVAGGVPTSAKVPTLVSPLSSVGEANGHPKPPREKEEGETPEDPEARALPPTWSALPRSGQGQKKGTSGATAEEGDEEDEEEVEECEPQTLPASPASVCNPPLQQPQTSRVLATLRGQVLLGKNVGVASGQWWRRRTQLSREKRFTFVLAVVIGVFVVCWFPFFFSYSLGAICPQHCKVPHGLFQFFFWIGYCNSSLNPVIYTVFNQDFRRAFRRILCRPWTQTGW
T1 sequence (P22909 whole entry): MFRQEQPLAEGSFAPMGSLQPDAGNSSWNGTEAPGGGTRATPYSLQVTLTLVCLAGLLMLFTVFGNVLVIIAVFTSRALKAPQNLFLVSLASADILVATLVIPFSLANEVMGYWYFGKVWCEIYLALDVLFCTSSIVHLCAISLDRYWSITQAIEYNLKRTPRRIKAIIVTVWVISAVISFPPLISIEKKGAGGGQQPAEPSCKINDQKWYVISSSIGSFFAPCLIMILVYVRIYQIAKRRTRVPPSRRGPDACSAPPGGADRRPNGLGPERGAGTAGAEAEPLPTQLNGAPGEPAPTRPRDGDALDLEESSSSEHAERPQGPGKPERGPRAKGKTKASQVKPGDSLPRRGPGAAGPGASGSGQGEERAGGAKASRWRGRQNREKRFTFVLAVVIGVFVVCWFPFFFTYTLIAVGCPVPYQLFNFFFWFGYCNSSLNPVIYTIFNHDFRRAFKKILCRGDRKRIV
Experiment: Antagonistic activity against alpha-2 adrenergic receptor in rat vas deferens
Type: functional, tissue-based

Q: With `CN([C@@H]1CCN2CCc3ccccc3[C@@H]2C1)S(=O)(=O)CC(F)(F)F` as the compound, how does the pA2 read?
A: 7.56

Q: With `CN([C@@H]1CCN2CCc3ccccc3[C@@H]2C1)S(=O)(=O)c1ccc(Cl)cc1` as the compound, how does the pA2 read?
A: 7.6

Q: Which pA2 does the source give for `CC(C)CS(=O)(=O)N[C@@H]1CCN2CCc3ccccc3[C@@H]2C1` here?
A: 6.34

Q: `COc1ccc(S(=O)(=O)N(C)[C@@H]2CCN3CCc4ccccc4[C@@H]3C2)cc1` was tested. Which pA2 did it give?
A: 8.1

Q: With `CNS(=O)(=O)N(C)[C@@H]1CCN2CCc3ccccc3[C@@H]2C1` as the compound, how does the pA2 read?
A: 7.44

Q: With `CCCCCCCCCCCCS(=O)(=O)N(C)[C@@H]1CCN2CCc3ccccc3[C@@H]2C1` as the compound, how does the pA2 read?
A: < 5

Q: Which pA2 does the source give for `CN([C@H]1CCN2CCc3ccccc3[C@H]2C1)S(C)(=O)=O` here?
A: < 5

Q: `CN([C@@H]1CCN2CCc3ccccc3[C@@H]2C1)S(=O)(=O)N1CCCC1` was tested. Which pA2 did it give?
A: 8.1

Q: With `CN([C@@H]1CCN2CCc3ccccc3[C@@H]2C1)S(=O)(=O)c1ccccc1` as the compound, how does the pA2 read?
A: 8.44

Q: Which pA2 does the source give for `C=CS(=O)(=O)N(C)[C@@H]1CCN2CCc3ccccc3[C@@H]2C1` here?
A: 7.93

Q: With `CCCCS(=O)(=O)N(C)[C@@H]1CCN2CCc3ccccc3[C@@H]2C1` as the compound, how does the pA2 read?
A: 7.87

Q: For `CN(C)CCS(=O)(=O)N(C)[C@@H]1CCN2CCc3ccccc3[C@@H]2C1`, which pA2 is on record?
A: 7.26

Q: Which pA2 does the source give for `CN(C)S(=O)(=O)N(C)[C@@H]1CCN2CCc3ccccc3[C@@H]2C1` here?
A: 7.4

Q: `CCCCCS(=O)(=O)N(C)[C@@H]1CCN2CCc3ccccc3[C@@H]2C1` was tested. Which pA2 did it give?
A: 7.74

Q: With `CN([C@@H]1CCN2CCc3ccccc3[C@@H]2C1)S(=O)(=O)c1cccc2ccccc12` as the compound, how does the pA2 read?
A: 8.06

Q: For `CCCS(=O)(=O)N(C)[C@@H]1CCN2CCc3ccccc3C2C1` (stereo partly specified), which pA2 is on record?
A: 5.78

Q: `CC(C)CS(=O)(=O)N(C)[C@H]1CCN2CCc3ccccc3[C@H]2C1` was tested. Which pA2 did it give?
A: < 5

Q: `Cc1ccccc1S(=O)(=O)N(C)[C@@H]1CCN2CCc3ccccc3[C@@H]2C1` was tested. Which pA2 did it give?
A: 7.87

Q: With `CN([C@@H]1CCN2CCc3ccccc3[C@@H]2C1)S(=O)(=O)CC1CC1` as the compound, how does the pA2 read?
A: 7.7

Q: `CN([C@@H]1CCN2CCc3ccccc3[C@@H]2C1)S(=O)(=O)CC(C)(C)C` was tested. Which pA2 did it give?
A: 8.11

Q: How did the pA2 turn out when `CCCS(=O)(=O)N(C)[C@H]1CCN2CCc3ccccc3[C@H]2C1` was run?
A: 7.1

Molecular target: T2, Adrenergic receptor alpha-1 (Rattus norvegicus, UniProt P15823+P23944+P43140)
T2 sequence (P15823 whole entry): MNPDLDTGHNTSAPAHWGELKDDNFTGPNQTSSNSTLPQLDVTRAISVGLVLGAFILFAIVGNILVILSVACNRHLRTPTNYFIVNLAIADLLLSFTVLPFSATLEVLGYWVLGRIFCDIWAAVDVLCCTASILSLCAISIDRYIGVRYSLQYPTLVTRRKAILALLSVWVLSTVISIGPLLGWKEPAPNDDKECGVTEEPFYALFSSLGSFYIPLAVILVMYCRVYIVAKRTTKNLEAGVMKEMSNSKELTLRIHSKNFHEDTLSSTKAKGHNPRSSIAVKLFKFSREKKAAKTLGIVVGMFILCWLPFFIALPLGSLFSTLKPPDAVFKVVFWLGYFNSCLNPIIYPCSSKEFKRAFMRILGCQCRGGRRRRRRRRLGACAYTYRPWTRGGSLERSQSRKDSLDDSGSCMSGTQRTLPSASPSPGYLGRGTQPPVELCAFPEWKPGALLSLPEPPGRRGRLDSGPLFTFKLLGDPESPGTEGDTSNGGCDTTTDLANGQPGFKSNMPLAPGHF
T2 sequence (P23944 whole entry): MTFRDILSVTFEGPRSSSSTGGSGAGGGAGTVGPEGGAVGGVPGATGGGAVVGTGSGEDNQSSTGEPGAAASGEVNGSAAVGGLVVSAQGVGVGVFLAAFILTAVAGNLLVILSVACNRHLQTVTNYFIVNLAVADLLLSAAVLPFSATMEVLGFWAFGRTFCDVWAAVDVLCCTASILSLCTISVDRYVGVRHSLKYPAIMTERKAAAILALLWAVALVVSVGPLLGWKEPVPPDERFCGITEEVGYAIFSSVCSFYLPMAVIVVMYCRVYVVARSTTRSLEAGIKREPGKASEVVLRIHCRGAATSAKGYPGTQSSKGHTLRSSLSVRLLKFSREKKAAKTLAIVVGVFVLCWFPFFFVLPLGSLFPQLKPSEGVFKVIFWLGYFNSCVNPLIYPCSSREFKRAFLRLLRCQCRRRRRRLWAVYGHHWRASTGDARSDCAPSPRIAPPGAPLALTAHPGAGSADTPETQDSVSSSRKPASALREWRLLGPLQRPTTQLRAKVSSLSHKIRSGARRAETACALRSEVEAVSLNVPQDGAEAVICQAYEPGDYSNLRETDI
T2 sequence (P43140 whole entry): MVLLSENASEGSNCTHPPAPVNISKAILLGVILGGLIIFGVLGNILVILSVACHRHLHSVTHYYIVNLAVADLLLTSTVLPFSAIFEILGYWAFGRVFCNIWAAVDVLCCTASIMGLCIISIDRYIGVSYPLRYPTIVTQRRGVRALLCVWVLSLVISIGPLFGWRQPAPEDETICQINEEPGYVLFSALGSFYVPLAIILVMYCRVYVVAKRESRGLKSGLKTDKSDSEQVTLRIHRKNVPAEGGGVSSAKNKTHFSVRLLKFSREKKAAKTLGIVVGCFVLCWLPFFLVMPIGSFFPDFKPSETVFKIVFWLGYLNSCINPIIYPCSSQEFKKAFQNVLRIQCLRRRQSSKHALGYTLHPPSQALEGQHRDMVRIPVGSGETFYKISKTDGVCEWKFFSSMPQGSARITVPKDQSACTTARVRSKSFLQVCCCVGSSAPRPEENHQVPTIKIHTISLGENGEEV
Experiment: Antagonistic activity against alpha-1 adrenergic receptor in isolated rat anococcygeus muscle
Type: functional, tissue-based

Q: Which pA2 does the source give for `CN([C@@H]1CCN2CCc3ccccc3[C@@H]2C1)S(=O)(=O)CC(F)(F)F` here?
A: 5.93

Q: `CN([C@@H]1CCN2CCc3ccccc3[C@@H]2C1)S(=O)(=O)c1ccc(Cl)cc1` was tested. Which pA2 did it give?
A: 6.09

Q: `CC(C)CS(=O)(=O)N[C@@H]1CCN2CCc3ccccc3[C@@H]2C1` was tested. Which pA2 did it give?
A: 6.55

Q: How did the pA2 turn out when `COc1ccc(S(=O)(=O)N(C)[C@@H]2CCN3CCc4ccccc4[C@@H]3C2)cc1` was run?
A: 6.5

Q: For `CNS(=O)(=O)N(C)[C@@H]1CCN2CCc3ccccc3[C@@H]2C1`, which pA2 is on record?
A: 6.19

Q: `CN([C@H]1CCN2CCc3ccccc3[C@H]2C1)S(C)(=O)=O` was tested. Which pA2 did it give?
A: 5.3

Q: With `CN([C@@H]1CCN2CCc3ccccc3[C@@H]2C1)S(=O)(=O)N1CCCC1` as the compound, how does the pA2 read?
A: 6.7

Q: With `CN([C@@H]1CCN2CCc3ccccc3[C@@H]2C1)S(=O)(=O)c1ccccc1` as the compound, how does the pA2 read?
A: 7.05

Q: Which pA2 does the source give for `C=CS(=O)(=O)N(C)[C@@H]1CCN2CCc3ccccc3[C@@H]2C1` here?
A: 6.32

Q: For `CCCCS(=O)(=O)N(C)[C@@H]1CCN2CCc3ccccc3[C@@H]2C1`, which pA2 is on record?
A: 6.6

Q: How did the pA2 turn out when `CN(C)CCS(=O)(=O)N(C)[C@@H]1CCN2CCc3ccccc3[C@@H]2C1` was run?
A: 5.6

Q: With `CN(C)S(=O)(=O)N(C)[C@@H]1CCN2CCc3ccccc3[C@@H]2C1` as the compound, how does the pA2 read?
A: 5.95

Q: For `CCCCCS(=O)(=O)N(C)[C@@H]1CCN2CCc3ccccc3[C@@H]2C1`, which pA2 is on record?
A: 6.8

Q: How did the pA2 turn out when `CN([C@@H]1CCN2CCc3ccccc3[C@@H]2C1)S(=O)(=O)c1cccc2ccccc12` was run?
A: 7.1

Q: With `CCCS(=O)(=O)N(C)[C@@H]1CCN2CCc3ccccc3C2C1` (stereo partly specified) as the compound, how does the pA2 read?
A: 5.86

Q: `CC(C)CS(=O)(=O)N(C)[C@H]1CCN2CCc3ccccc3[C@H]2C1` was tested. Which pA2 did it give?
A: 5.2

Q: `Cc1ccccc1S(=O)(=O)N(C)[C@@H]1CCN2CCc3ccccc3[C@@H]2C1` was tested. Which pA2 did it give?
A: 6.27

Q: For `CN([C@@H]1CCN2CCc3ccccc3[C@@H]2C1)S(=O)(=O)CC1CC1`, which pA2 is on record?
A: 6.7

Q: With `CN([C@@H]1CCN2CCc3ccccc3[C@@H]2C1)S(=O)(=O)CC(C)(C)C` as the compound, how does the pA2 read?
A: 6.5

Q: How did the pA2 turn out when `CCCS(=O)(=O)N(C)[C@H]1CCN2CCc3ccccc3[C@H]2C1` was run?
A: 5.8
